Source: patent US10752588B2 (The Broad Institute, Inc., priority 2014, dated 2020)
Values belong to the molecule of their own block, whether it stands above or below them.

Legend:
human D2R/β-arrestin [1] = target: T1, human D2R/β-arrestin (Homo sapiens (Human), UniProt P14416); assay: β-Arrestin agonist assay (PathHunter); type: cell-based; settings: CHO-K1 cell line expressing human D2R/β-arrestin
Procedure: (§1) The assays can be performed using proper detection reagents either prepared using routine methods known in the art or commercially available (e.g., PathHunter® β-Arrestin Detecting Kit (DiscoveRX)). Cells are grown to the necessary confluence and then detached. The cells are then centrifuged, washed, resuspended, and seeded into a container (e.g., 384-well plate). The cells are incubated (e.g., at 37° C., 5% CO2) for the appropriate period of time (e.g., 24 hours), before various compounds (e.g., a compound of the invention or a control compound) are added to the cells. After incubation of the cells with the compounds, detection reagents (e.g., a buffer containing Emerald II: Galactor-Star as provided DiscoveRX) are added to the cells. The read-out (e.g., luminescence, or fluorescence) is detected using standard equipment.
The detection reagent (9.6 μL, Buffer:Emerald II:Galactor-Star in a 19:5:1 ratio, i.e., 14.06 mL:3.7 mL:0.74 mL=18.5 mL) was then added to the agonist plates.

human D2R/β-arrestin [2] = target: T1, human D2R/β-arrestin; assay: Gi/cAMP agonist assay (Lance Ultra cAMP, Forskolin); type: cell-based; settings: CHO-K1 cell line expressing human D2R/β-arrestin
Procedure: as §1, with “PE Lance Ultra cAMP kit (TRF0263)).” for “PathHunter® β-Arrestin Detecting Kit (DiscoveRX)).”, “Afterwards, cAMP inducing agents (e.g., Forskolin) are added to and incubated with” for “After incubation of”, “before” for “with the compounds,”, “cAMP antibody, such” for “buffer containing Emerald II: Galactor-Star”, “ULight-anti-cAMP solution)” for “provided DiscoveRX)”, “Read-out” for “The read-out”
Compounds were pin-transferred (100 nL) to the cells, and incubated for 10 min. at 37° C. […] Eu-cAMP tracer solution (100, PerkinElmer, […] in 17.64 ml kit buffer) and ULight-anti-cAMP solution (100, 120 μL antibody in 17.88 ml kit buffer) was then added to each well.

human D2R/β-arrestin [3] = target: T1, human D2R/β-arrestin; assay: cell-based; settings: cAMP Antagonist
human D2R/β-arrestin [4] = target: T1, human D2R/β-arrestin; assay: cell-based; settings: β-arrestin Antagonist
[5] = CHO-K1 cell line expressing human D2R/β-arrestin, quinpirole used as agonist

T1 sequence (P14416 whole entry): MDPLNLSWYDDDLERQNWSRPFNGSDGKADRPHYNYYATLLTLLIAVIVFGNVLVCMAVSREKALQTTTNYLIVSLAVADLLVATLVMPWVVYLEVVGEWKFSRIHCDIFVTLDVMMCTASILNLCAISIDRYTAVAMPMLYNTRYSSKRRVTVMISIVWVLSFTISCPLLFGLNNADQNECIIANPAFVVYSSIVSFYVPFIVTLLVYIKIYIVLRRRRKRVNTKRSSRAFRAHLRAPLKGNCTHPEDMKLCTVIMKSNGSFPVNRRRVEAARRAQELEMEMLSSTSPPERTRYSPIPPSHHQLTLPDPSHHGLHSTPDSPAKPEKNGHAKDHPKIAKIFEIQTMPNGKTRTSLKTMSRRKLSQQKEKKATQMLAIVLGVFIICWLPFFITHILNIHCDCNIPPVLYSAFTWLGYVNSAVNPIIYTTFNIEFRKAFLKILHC

SMILES: c1ccc(OCCN2CCC(CNC(c3ccc4c(c3)OCO4)c3ccccn3)CC2)cc1 (single isomer, unassigned) [Compound 102a, 1-(benzo[d][1,3]dioxol-5-yl)-N-((1-(2-phenoxyethyl)piperidin-4-yl)methyl)-1-(pyridin-2-yl)methanamine]
EC50 (human D2R/β-arrestin [1]): > 30000 nM
EC50 (human D2R/β-arrestin [2]): > 30000 nM
IC50 (human D2R/β-arrestin [3]; [5]): 1000 to 10000 nM
IC50 (human D2R/β-arrestin [4]; [5]): 1000 to 10000 nM

SMILES: CC(C)N(CC1CCN(CCOc2ccccc2)CC1)C(c1ccc(Cl)cc1)c1ccccn1 (single isomer, unassigned) [Compound 103a, N-((4-chlorophenyl)(pyridin-2-yl)methyl)-N-((1-(2-phenoxyethyl)piperidin-4-yl)methyl)propan-2-amine]
EC50 (human D2R/β-arrestin [1]): > 30000 nM
EC50 (human D2R/β-arrestin [2]): 100 to 1000 nM
IC50 (human D2R/β-arrestin [3]): < 100 nM
IC50 (human D2R/β-arrestin [4]): 100 to 1000 nM

SMILES: Clc1ccc(C(NCC2CCN(CCOc3ccccc3)CC2)c2ccccn2)cc1 (single isomer, unassigned) [Compound 114b, 1-(4-chlorophenyl)-N-((1-(2-phenoxyethyl)piperidin-4-yl)methyl)-1-(pyridin-2-yl)methanamine]
EC50 (human D2R/β-arrestin [1]): > 30000 nM
EC50 (human D2R/β-arrestin [2]): 100 to 1000 nM
IC50 (human D2R/β-arrestin [3]; [5]): > 30000 nM
IC50 (human D2R/β-arrestin [4]; [5]): 100 to 1000 nM

SMILES: O=C(NC(c1ccc(Cl)cc1)c1ccccn1)C1CCN(CCOc2ccc(F)cc2F)CC1 (single isomer, unassigned) [Compound 115a, N-((4-chlorophenyl)(pyridin-2-yl)methyl)-1-(2-(2,4-difluorophenoxy)ethyl)piperidine-4-carboxamide]
EC50 (human D2R/β-arrestin [1]): > 30000 nM
EC50 (human D2R/β-arrestin [2]): 100 to 1000 nM
IC50 (human D2R/β-arrestin [3]; [5]): > 30000 nM
IC50 (human D2R/β-arrestin [4]; [5]): 1000 to 10000 nM

SMILES: O=C(NC(c1ccc(Cl)cc1)c1ccccn1)C1CCN(CCOc2ccc(F)cc2F)CC1 (single isomer, unassigned) [Compound 115b, N-((4-chlorophenyl)(pyridin-2-yl)methyl)-1-(2-(2,4-difluorophenoxy)ethyl)piperidine-4-carboxamide]
EC50 (human D2R/β-arrestin [1]): > 30000 nM
EC50 (human D2R/β-arrestin [2]): > 30000 nM
IC50 (human D2R/β-arrestin [3]; [5]): 100 to 1000 nM
IC50 (human D2R/β-arrestin [4]; [5]): 100 to 1000 nM

SMILES: FC(F)(F)CN(CC1CCN(CCOc2ccccc2)CC1)C(c1ccc(Cl)cc1)c1ccccn1 (single isomer, unassigned) [Compound 125a, N-((4-chlorophenyl)(pyridin-2-yl)methyl)-2,2,2-trifluoro-N-((1-(2-phenoxyethyl)piperidin-4-yl)methyl)ethanamine]
EC50 (human D2R/β-arrestin [1]): > 30000 nM
EC50 (human D2R/β-arrestin [2]): 100 to 1000 nM
IC50 (human D2R/β-arrestin [3]; [5]): > 30000 nM
IC50 (human D2R/β-arrestin [4]; [5]): 1000 to 10000 nM

SMILES: FC(F)(F)CN(CC1CCN(CCOc2ccccc2)CC1)C(c1ccc(Cl)cc1)c1ccccn1 (single isomer, unassigned) [Compound 125b, N-((4-chlorophenyl)(pyridin-2-yl)methyl)-2,2,2-trifluoro-N-((1-(2-phenoxyethyl)piperidin-4-yl)methyl)ethanamine]
EC50 (human D2R/β-arrestin [1]): > 30000 nM
EC50 (human D2R/β-arrestin [2]): > 30000 nM
IC50 (human D2R/β-arrestin [3]; [5]): 1000 to 10000 nM
IC50 (human D2R/β-arrestin [4]; [5]): 100 to 1000 nM

SMILES: O=C(NC(c1ccc(Cl)cc1)c1ccccn1)C1CCN(CCOc2cccc(Cl)c2)CC1 (stereo not drawn) [Compound 1, 1-(2-(3-chlorophenoxy)ethyl)-N-((4-chlorophenyl)(pyridin-2-yl)methyl)piperidine-4-carboxamide]
EC50 (human D2R/β-arrestin [1]): > 30000 nM
EC50 (human D2R/β-arrestin [2]): < 100 nM
IC50 (human D2R/β-arrestin [3]; [5]): > 30000 nM
IC50 (human D2R/β-arrestin [4]; [5]): 100 to 1000 nM

SMILES: O=C(NC(c1ccc(Cl)cc1)c1ccccn1)C1CCN(CCOc2ccc(Cl)cc2)CC1 (stereo not drawn) [Compound 2, 1-(2-(4-chlorophenoxy)ethyl)-N-((4-chlorophenyl)(pyridine-2-yl)methyl) piperidine-4-carboxamide]
EC50 (human D2R/β-arrestin [1]): > 30000 nM
EC50 (human D2R/β-arrestin [2]): 100 to 1000 nM
IC50 (human D2R/β-arrestin [3]; [5]): > 30000 nM
IC50 (human D2R/β-arrestin [4]; [5]): 1000 to 10000 nM

SMILES: O=C(NC(c1ccc(Cl)cc1)c1ccccn1)C1CCN(CCOc2cccc(F)c2)CC1 (stereo not drawn) [Compound 4]
EC50 (human D2R/β-arrestin [1]): > 30000 nM
EC50 (human D2R/β-arrestin [2]): < 100 nM
IC50 (human D2R/β-arrestin [3]; [5]): > 30000 nM
IC50 (human D2R/β-arrestin [4]; [5]): 100 to 1000 nM

SMILES: O=C(NC(c1ccc(Cl)cc1)c1ccccn1)C1CCN(CCn2ccccc2=O)CC1 (stereo not drawn) [Compound 9, N((4-chlorophenyl)(pyridin-2-yl)methyl)-1-(2-(2-oxopyridin-1(2H)-yl)ethyl) piperidine-4-carboxamide]
EC50 (human D2R/β-arrestin [1]): > 30000 nM
EC50 (human D2R/β-arrestin [2]): > 30000 nM
IC50 (human D2R/β-arrestin [3]; [5]): 1000 to 10000 nM
IC50 (human D2R/β-arrestin [4]; [5]): 1000 to 10000 nM

SMILES: COc1cccc(OCCN2CCC(C(=O)NC(c3ccc(Cl)cc3)c3ccccn3)CC2)c1 (stereo not drawn) [Compound 12, N-((4-chlorophenyl) (pyridin-2-yl)methyl)-1-(2-(3-methoxyphenoxy)ethyl) piperidine-4-carboxamide]
EC50 (human D2R/β-arrestin [1]): > 30000 nM
EC50 (human D2R/β-arrestin [2]): 10000 to 30000 nM
IC50 (human D2R/β-arrestin [3]; [5]): 100 to 1000 nM
IC50 (human D2R/β-arrestin [4]; [5]): 1000 to 10000 nM

The remaining lines, values ahead:

EC50 (human D2R/β-arrestin [1]): > 30000 nM
EC50 (human D2R/β-arrestin [2]): > 30000 nM
IC50 (human D2R/β-arrestin [3]; [5]): 100 to 1000 nM
IC50 (human D2R/β-arrestin [4]; [5]): 1000 to 10000 nM
SMILES: O=C(NC(c1ccc2c(c1)OC(F)(F)O2)c1ccccn1)C1CCN(CCOc2ccc(F)cc2F)CC1 (single isomer, unassigned) [Compound 130a, N-((2,2-difluorobenzo[d][1,3]dioxol-5-yl)(pyridin-2-yl)methyl)-1-(2-(2,4-difluorophenoxy)ethyl)piperidine-4-carboxamide]

EC50 (human D2R/β-arrestin [1]): > 30000 nM
EC50 (human D2R/β-arrestin [2]): > 30000 nM
IC50 (human D2R/β-arrestin [3]; [5]): < 100 nM
IC50 (human D2R/β-arrestin [4]; [5]): < 100 nM
SMILES: CC(C)N(CC1CCN(CCOc2ccccc2F)CC1)C(c1ccc(Cl)cc1)c1ccccn1 (single isomer, unassigned) [Compound 133a, N-((4-chlorophenyl)(pyridin-2-yl)methyl)-N-((1-(2-(2-fluorophenoxy)ethyl)piperidin-4-yl)methyl)propan-2-amine]

EC50 (human D2R/β-arrestin [1]): < 100 nM
EC50 (human D2R/β-arrestin [2]): < 100 nM
IC50 (human D2R/β-arrestin [3]; [5]): > 30000 nM
IC50 (human D2R/β-arrestin [4]; [5]): 100 to 1000 nM
SMILES: CC(C)N(CC1CCN(CCOc2ccccc2F)CC1)C(c1ccc(Cl)cc1)c1ccccn1 (single isomer, unassigned) [Compound 133b, N-((4-chlorophenyl)(pyridin-2-yl)methyl)-N-((1-(2-(2-fluorophenoxy)ethyl)piperidin-4-yl)methyl)propan-2-amine]

EC50 (human D2R/β-arrestin [1]): 100 to 1000 nM
EC50 (human D2R/β-arrestin [2]): 1000 to 10000 nM
IC50 (human D2R/β-arrestin [3]; [5]): > 30000 nM
IC50 (human D2R/β-arrestin [4]; [5]): 100 to 1000 nM
SMILES: Fc1ccccc1OCCN1CCC(CN(CC(F)(F)F)C(c2ccc(Cl)cc2)c2ccccn2)CC1 (single isomer, unassigned) [Compound 136a, N-((4-chlorophenyl)(pyridin-2-yl)methyl)-2,2,2-trifluoro-N-((1-(2-(2-fluorophenoxy)ethyl)piperidin-4-yl)methyl)ethan-1-amine]

EC50 (human D2R/β-arrestin [1]): > 30000 nM
EC50 (human D2R/β-arrestin [2]): > 30000 nM
IC50 (human D2R/β-arrestin [3]; [5]): < 100 nM
IC50 (human D2R/β-arrestin [4]; [5]): < 100 nM
SMILES: Fc1ccccc1OCCN1CCC(CN(CC(F)(F)F)C(c2ccc(Cl)cc2)c2ccccn2)CC1 (single isomer, unassigned) [Compound 136b, N-((4-chlorophenyl)(pyridin-2-yl)methyl)-2,2,2-trifluoro-N-((1-(2-(2-fluorophenoxy)ethyl)piperidin-4-yl)methyl)ethan-1-amine]

EC50 (human D2R/β-arrestin [1]): 100 to 1000 nM
EC50 (human D2R/β-arrestin [2]): < 100 nM
IC50 (human D2R/β-arrestin [3]; [5]): > 30000 nM
IC50 (human D2R/β-arrestin [4]; [5]): 100 to 1000 nM
SMILES: CN(CC1CCN(CCOc2ccccc2F)CC1)C(c1ccc2c(c1)OCO2)c1ccccn1 (single isomer, unassigned) [Compound 138a, 1-(benzo[d][1,3]dioxol-5-yl)-N-((1-(2-(2-fluorophenoxy)ethyl)piperidin-4-yl)methyl)-N-methyl-1-(pyridin-2-yl)methanamine]

EC50 (human D2R/β-arrestin [1]): > 30000 nM
EC50 (human D2R/β-arrestin [2]): < 100 nM
IC50 (human D2R/β-arrestin [3]; [5]): 100 to 1000 nM
IC50 (human D2R/β-arrestin [4]; [5]): 100 to 1000 nM
SMILES: Fc1ccccc1OCCN1CCC(CNC(c2ccc3c(c2)OCO3)c2ccccn2)CC1 (single isomer, unassigned) [Compound 139a, 1-(benzo[d][1,3]dioxol-5-yl)-N-((1-(2-(2-fluorophenoxy)ethyl)piperidin-4-yl)methyl)-1-(pyridin-2-yl)methanamine]

EC50 (human D2R/β-arrestin [1]): > 30000 nM
EC50 (human D2R/β-arrestin [2]): > 30000 nM
IC50 (human D2R/β-arrestin [3]; [5]): 1000 to 10000 nM
IC50 (human D2R/β-arrestin [4]; [5]): 10000 to 30000 nM
SMILES: COc1cccc(C(NC(=O)C2CCN(CCOc3ccc(F)cc3F)CC2)c2ccccn2)c1 (single isomer, unassigned) [Compound 145a, 1-(2-(2,4-difluorophenoxy)ethyl)-N-((3-methoxyphenyl)(pyridin-2-yl)methyl)piperidine-4-carboxamide]

EC50 (human D2R/β-arrestin [1]): > 30000 nM
EC50 (human D2R/β-arrestin [2]): > 30000 nM
IC50 (human D2R/β-arrestin [3]; [5]): 100 to 1000 nM
IC50 (human D2R/β-arrestin [4]; [5]): 1000 to 10000 nM
SMILES: COc1cccc(C(NC(=O)C2CCN(CCOc3ccc(F)cc3F)CC2)c2ccccn2)c1 (single isomer, unassigned) [Compound 145b, 1-(2-(2,4-difluorophenoxy)ethyl)-N-((3-methoxyphenyl)(pyridin-2-yl)methyl)piperidine-4-carboxamide]
